The assay deals with K24384-001-R-PDC complex spheroid viability. Briefly: Anticancer human tumor K24384-001-R-PDC patient-derived pancreatic adenocarcinoma cell line growth inhibition. As to conditions: for viability, T/C: stronger effect = lower value. The method, boiled down: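 Multicellular complex spheroids of tumor cells with human endothelial cells (HUVEC) and mesenchymal stem cells; the LSD1 inhibitor iadademstat was combined with standard-of-care or investigational agents. Top concentration at or near clinical Cmax, half-log dilutions; final DMSO ≤0.25%.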

“And” between values parts separate entries of the source, which are not always exact repeats. Equal values may be shown once.
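Note: spheroids exposed to agents for seven days before luminescence viability reading.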
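Throughout, for viability, T/C: 100% = DMSO vehicle control viability.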

For orientation: viability, T/C means the ratio of treated to control. What is called IC50 is the concentration at which inhibition is half-maximal. On to `O=C(C=Cn1cnc(-c2cc(C(F)(F)F)cc(C(F)(F)F)c2)n1)NNc1cnccn1`, for which the viability, T/C reads like this: (compound 0.00316 µM) 74% and 75.6%; (compound 0.01 µM) 61.5% and 68%; (compound 0.0316 µM) 60.1% and 51.8%; (compound 0.1 µM) 35.2% and 28.2%; (compound 0.316 µM) 29.8% and 27.7%; (compound 1 µM) 19.4% and 19.7%. Moreover, the IC50 (curve of compound) is 45.2 nM and 32.6 nM.
For the molecule `CC1COCCN1c1cc(C2(S(C)(=N)=O)CC2)nc(-c2ccnc3[nH]ccc23)n1` (centres undefined), the viability, T/C is, setting by setting: (compound 0.0316 µM) 103% and 94.9%; (compound 0.1 µM) 97.9% and 102%; (compound 0.316 µM) 107% and 81.7%; (compound 1 µM) 75.8% and 67.1%; (compound 3.16 µM) 45.8% and 42.4%; (compound 10 µM) 48.6% and 44.5%. The IC50 (curve of compound) is 2830 nM and 2530 nM.
In the case of `COc1ccc([C@@H](O)c2cc(-c3ncnc4cc(N5CCOCC5)ccc34)c(F)cc2Cl)nn1` + NC1CC1c1ccc(-c2cccc(O)c2)cc1, the half-maximal inhibitory concentration (IC50) reads like this: (curve of first compound, second compound 0.1 µM) 1330 nM; (curve of first compound, second compound 0.316 µM) 2000 nM; (curve of first compound, second compound 1 µM) 1490 nM; (curve of first compound, second compound 3.16 µM) 1440 nM; (curve of first compound, second compound 10 µM) 1450 nM. Further, the viability, T/C by setting is: (second compound 0.1 µM, first compound 0.0316 µM) 97%; (second compound 0.1 µM, first compound 0.1 µM) 95.6%; (second compound 0.1 µM, first compound 0.316 µM) 87.2%; (second compound 0.1 µM, first compound 1 µM) 55.9%; (second compound 0.1 µM, first compound 3.16 µM) 29.6%; (second compound 0.1 µM, first compound 10 µM) 17.8%. The viability, T/C runs as follows: (second compound 0.316 µM, first compound 0.0316 µM) 112%; (second compound 0.316 µM, first compound 0.1 µM) 102%; (second compound 0.316 µM, first compound 0.316 µM) 91.1%; (second compound 0.316 µM, first compound 1 µM) 73.2%; (second compound 0.316 µM, first compound 3.16 µM) 34.3%; (second compound 0.316 µM, first compound 10 µM) 15.1%. Besides, the viability, T/C (second compound 1 µM, first compound 0.0316 µM) is 117%; the viability, T/C (second compound 1 µM, first compound 0.1 µM) was 103%; the viability, T/C (second compound 1 µM, first compound 0.316 µM) was 95.2%; the viability, T/C (second compound 1 µM, first compound 1 µM) is 61.3%; the viability, T/C (second compound 1 µM, first compound 3.16 µM) was 28.1%; the viability, T/C (second compound 1 µM, first compound 10 µM) was 15.9%. In addition, the viability, T/C runs as follows: (second compound 3.16 µM, first compound 0.0316 µM) 105%; (second compound 3.16 µM, first compound 0.1 µM) 105%; (second compound 3.16 µM, first compound 0.316 µM) 79.7%; (second compound 3.16 µM, first compound 1 µM) 62.7%; (second compound 3.16 µM, first compound 3.16 µM) 28.6%; (second compound 3.16 µM, first compound 10 µM) 15.1%. Further, the viability, T/C by setting is: (second compound 10 µM, first compound 0.0316 µM) 124%; (second compound 10 µM, first compound 0.1 µM) 114%; (second compound 10 µM, first compound 0.316 µM) 96.6%; (second compound 10 µM, first compound 1 µM) 57%; (second compound 10 µM, first compound 3.16 µM) 32.2%; (second compound 10 µM, first compound 10 µM) 14.9%.

The values above are taken from PubChem BioAssay AID1918949 (Molecular Pharmacology Branch, DTP, NCI, 2023).
